Experimental data published in ChEMBL document CHEMBL5584244, “Discovery of novel pyrrolo[2,1-c][1,4]benzodiazepine-3,11-dione (PBD) derivatives as selective HDAC6 inhibitors for the efficient treatment of idiopathic pulmonary fibrosis (IPF) in vitro and in vivo” (Eur J Med Chem, 2024).
pIC50: −log10 of the molar value.

Key:
[1] = molecular target: T1, Protein deacetylase HDAC6 (Homo sapiens, UniProt Q9UBN7); assay: Inhibition of recombinant human full length HDAC6 using Boc-Lys (Ac)-AMC as substrate incubated for 120 mins by fluorescence analysis
T1 sequence (Q9UBN7 whole entry): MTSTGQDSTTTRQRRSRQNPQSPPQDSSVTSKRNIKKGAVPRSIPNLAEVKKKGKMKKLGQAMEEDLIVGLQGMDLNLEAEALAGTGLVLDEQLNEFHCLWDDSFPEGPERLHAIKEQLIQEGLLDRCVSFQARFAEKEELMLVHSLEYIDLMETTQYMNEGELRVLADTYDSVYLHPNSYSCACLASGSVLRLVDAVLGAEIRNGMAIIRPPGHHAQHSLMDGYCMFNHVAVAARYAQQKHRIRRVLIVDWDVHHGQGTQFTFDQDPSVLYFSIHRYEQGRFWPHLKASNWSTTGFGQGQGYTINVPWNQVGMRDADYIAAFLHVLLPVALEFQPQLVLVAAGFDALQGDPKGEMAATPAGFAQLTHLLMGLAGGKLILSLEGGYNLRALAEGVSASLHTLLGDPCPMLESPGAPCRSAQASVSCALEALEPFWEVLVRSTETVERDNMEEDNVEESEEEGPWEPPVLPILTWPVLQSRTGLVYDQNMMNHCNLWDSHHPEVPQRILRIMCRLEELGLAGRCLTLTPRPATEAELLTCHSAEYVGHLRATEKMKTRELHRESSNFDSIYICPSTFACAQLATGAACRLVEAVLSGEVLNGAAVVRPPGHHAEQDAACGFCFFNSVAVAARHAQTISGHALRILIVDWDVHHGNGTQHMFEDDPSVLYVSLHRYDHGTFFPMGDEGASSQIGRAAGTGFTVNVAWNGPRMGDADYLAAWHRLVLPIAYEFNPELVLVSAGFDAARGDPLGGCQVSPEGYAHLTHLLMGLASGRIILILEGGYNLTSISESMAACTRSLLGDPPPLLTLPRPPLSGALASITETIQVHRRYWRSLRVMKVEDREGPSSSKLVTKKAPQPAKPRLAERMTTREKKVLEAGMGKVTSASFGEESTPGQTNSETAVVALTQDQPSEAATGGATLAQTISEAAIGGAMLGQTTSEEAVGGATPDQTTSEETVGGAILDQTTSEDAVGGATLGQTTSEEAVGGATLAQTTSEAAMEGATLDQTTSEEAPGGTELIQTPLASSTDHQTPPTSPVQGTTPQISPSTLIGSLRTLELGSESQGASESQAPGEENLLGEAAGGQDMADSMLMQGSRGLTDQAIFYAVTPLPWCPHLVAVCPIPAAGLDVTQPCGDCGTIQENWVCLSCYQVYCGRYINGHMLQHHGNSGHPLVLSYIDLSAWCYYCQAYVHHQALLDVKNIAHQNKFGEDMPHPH

[2] = Half life in human liver microsomes at 100 uM by LC-MS/MS analysis; assay type: ADME, Microsome

Structure (SMILES) | pIC50 [1] | half-life at 100 µM [2]
O=C(CCCCCCCN1C(=O)[C@@H]2CCCN2Cc2ccccc21)NO | 6.54 | –
COc1cc2c(cc1OCc1ccccc1)CN1C(=O)CC[C@H]1C(=O)N2Cc1ccc(C(=O)NO)cc1 | 7.67 | –
O=C(O)Cc1ccccc1Nc1c(Cl)cccc1Cl [DICLOFENAC] | – | 5.3 min
COc1cc2c(cc1O)CN1C(=O)CC[C@H]1C(=O)N2Cc1cccc(C(=O)NO)c1 | 6.53 | –
COc1cc2c(cc1OCc1ccccc1)CN1C(=O)CC[C@H]1C(=O)N2CCCCCCC(=O)NO | 7.92 | –
COc1cc2c(cc1O)CN1C(=O)CC[C@H]1C(=O)N2CCCCCC(=O)NO | 7.81 | –
O=C(CCCCCCN1C(=O)[C@@H]2CCCN2Cc2ccccc21)NO | 6.53 | –
COc1cc2c(cc1O)CN1C(=O)CC[C@H]1C(=O)N2CCCCCCC(=O)NO | 7.87 | –
O=C(NO)c1cccc(CN2C(=O)[C@@H]3CCCN3Cc3ccccc32)c1 | < 6.52 | –
COc1cc2c(cc1OCc1ccccc1)CN1C(=O)CC[C@H]1C(=O)N2CCCCCC(=O)NO | 7.76 | –
COc1cc2c(cc1OCc1ccccc1)CN1C(=O)CC[C@H]1C(=O)N2Cc1cccc(C(=O)NO)c1 | 6.74 | –
